The values below come from US20240009170A1, “INHIBITION OF GLYCOGEN SYNTHASE KINASE-3 (GSK-3)” (Brown University, priority 2020, published 2024).

In data set [1] the test system is SW480 tumor cells. Nature of the data set: Immune cell co-culture of TALL-104 T cells and SW480 tumor cells. The data set is classed as cell-based, Human. Conditions: for dead cells out of total cells, average, after normalization: 1:1 TALL-104 to SW480. The method, then: Immune cell co-culture experiments. Co-culture experiments were conducted with GFP+ SW480 or HCT-116 colorectal cancer cells and either NK-92 natural killer cells or TALL-104 T cells in a 48-well plate, in the presence or absence of 9-ING-41. HCT-116 cells were labeled using CellTracker™ Green CMFDA (5-chloromethylfluorescein diacetate), immune cells (NK-92, TALL-104) were labeled using CellTracker™ Blue CMAC Dye (7-amino-4-chloromethylcoumarin), and ethidium homodimer-1 (EthD-1) was used as a marker of cell death (Invitrogen, Thermo Fisher Scientific, Waltham, MA, USA).
Co-culture experiments were conducted with GFP+ SW480 colorectal cancer cells and either NK-92 natural killer cells or TALL-104 T cells at various effector/target ratios in a 48-well plate, in the presence or absence of 9-ING-41.
The compound 9-lNG-41 boosts immune cell-mediated tumor cell-killing in a co-culture model. A co-culture of GFP+ SW480 tumor cells and Green CMFDA-labeled TALL-104 T cells treated with 9-ING-41 lead to an increase in tumor cell death after twenty-four hours. […] In the co-culture with tumor and immune cells only, in the absence of drug, the inventors noted that the percentage of dead cells out of total cells was approximately 27%, after normalization. Normalization was carried out by subtracting the percentage of cell death due to drug or vehicle control (DMSO) only from the percentage of dead cells observed in the co-culture treated with drug.
Pre-treatment with 9-ING-41 sensitizes SW480 tumor cells to immune cell-mediated cell killing. To determine if the increased amount of immune-cell mediated tumor cell-killing was due to the drug's impact on the tumor cells or the immune cells, the inventors next pre-treated tumor cells with 9-ING-41 for twenty-four hours before the co-culture with immune cells began. Pre-treatment with 9-ING-41 sensitized SW480 tumor cells to TALL-104 cell-mediated cell killing. The raw percentages of cell death were used to normalize the data. The inventors confirmed these co-culture results using healthy, CD8+ T cells instead of TALL-104 cells.

For data set [2], the system named is HT-29. Description: Flow cytometric analysis of cell surface markers, HT-29. The data set is classed as cell-based, Human. Conditions: post-treatment, 48 hours. The method, then:
(§1) FIG. 12 is a set of bar graphs showing flow cytometric analyses of cell surface markers of tumor and immune cells treated with 9-ING-41 in vitro. FIG. 12(A) HCT-116, FIG. 12(B) HT-29, FIG. 12(C) TALL-104, and FIG. 12(D) NK-92 cells were treated with indicated concentrations of 9-ING-41 for forty-eight hours, stained for indicated cell surface marker expression, and analyzed with a BD LSRII. Statistical significance was determined using two-tailed unpaired T tests.
(§2) To further understand the differential 9-ING-41-mediated impacts on protein expression, the inventors treated tumor and immune cells in vitro with 9-ING-41, then performed a flow cytometric analysis for expression of cell surface markers. […] A similar trend occurred in HT-29 cells, although not statistically significant. […] FIG. 10(C). […] FIG. 10(D).

Data set [3] concerns NK-92. Description: Flow cytometric analysis of cell surface markers, NK-92. Conditions: 48 hours. The data set is classed as cell-based, Human. As for the experimental part:
as §1, §2

Data set [4] can be described thus: Body weight, complete blood count and serum chemistry in the CT-26 BALB/c model. On the set-up: species or system BALB/c mice. Conditions: mouse, in vivo. The text has this:
As can be expected in mice with significant tumor burdens, mice across treatment groups had decreased albumin levels and evidence of mild marrow hypoplasia resulting in mild anemia, and lower white blood cell and platelet counts. This effect was independent of treatment group and likely related to tumor burden at the time of sacrifice.

Data set [5] deals with pulmonary fibrosis. Conditions: cited from earlier work.
The test system of data set [6] is TALL-104 cells. Nature of the data set: Cytokine profile of immune cell culture supernatant, TALL-104. It counts as cell-based, Human. Conditions: 1 μM, 48 hours. As for the experimental part: Collection of cell culture supernatants used in cytokine measurements. Cells were plated at 3.5×10^4 cells in a 48-well plate (Thermo Fisher Scientific, Waltham, MA, USA) in complete medium and incubated at 37° C. with 5% CO2. At twenty-four hours after plating, almost all the tumor cells were adherent to the bottom of the flask and the complete medium was replaced with drug-containing medium. Subsequently, the culture supernatants were collected after forty-eight hours of incubation and were frozen at −80° C. until the measurement of cytokines was performed. The day of analysis, samples were thawed and centrifuged to remove cellular debris.
Human cytokine profiling. Human cell line culture supernatants were analyzed using an R&D systems Human Premixed Multi-Analyte Kit (R&D Systems, Inc., Minneapolis, MN, USA) and a Luminex 200 Instrument (LX200-XPON-RUO, Luminex Corporation, Austin, TX, USA) according to the manufacturer's instructions. […]
9-ING-41 increases secreted cytotoxic proteins IFN-v, Granzyme B, and TRAIL in immune cells. […] Here, the inventors determined how 9-ING-41 treatment impacts the immune cell cytokinome. […]

Like-named read-outs stand apart in the source and are kept apart here.

Consider `Cn1cc(C2=C(c3coc4ccc(F)cc34)C(=O)NC2=O)c2cc3c(cc21)OCO3` [9-ING-41], for which the “dead cells out of total cells, average, after normalization” value in data set [1] (5 μM 9-ING-41, 24-hour co-culture) is on record as 33%. Further, the “dead cells out of total cells, average, after normalization” value in data set [1] (10 μM 9-ING-41, 24-hour co-culture) was determined as 37%. Besides, the “amount of TALL-104 cell-mediated SW480 cell-killing” value in data set [1] (after treatment, 24 hours) is “dose-dependent increase”. Moreover, in data set [1] (compared to controls without drug treatment), the “T cell (TALL-104) killing of colorectal cancer cells” value is given as “significant increase”. The “tumor cell death in SW480 monocultures treated with drug only” value in data set [1] (monoculture, no immune cells) is on record as “Limited tumor cell death”. Also, the “TALL-104 cell-mediated cell killing after tumor cell pre-treatment” value in data set [1] (tumor cells pre-treated 24 hours before co-culture) is “sensitized”. In addition, the “HLA-E and PD-L1 surface expression” value in data set [2] is “statistically significant increase”. For the same compound, in data set [3], the “TRAIL and LAG3 surface expression” value was “increases”; the “checkpoint molecule NKG2A surface expression” value is listed as “statistically significant decreases”. In addition, in data set [4], the electrolyte perturbations result is “free of significant electrolyte perturbations”; the “renal function (blood urea nitrogen and creatinine)” value is “maintained normal renal function”. Besides, in data set [5] (models of TGF-β), the “pulmonary fibrosis and pulmonary function” value is “reduced pulmonary fibrosis and improved pulmonary function”. In data set [5] (models of bleomycin pulmonary fibrosis), the “pulmonary fibrosis and pulmonary function” value was “reduced pulmonary fibrosis and improved pulmonary function”. In data set [6], the “IFN-γ, granzyme B, and TRAIL concentrations” value is recorded as “increases”.
